Measurements from US10064858B2, “Methods and compositions for treating bacterial infections with iron chelators” (THE UNITED STATES OF AMERICA, AS REPRESENTED BY THE …, priority 2011, dated 2018).
“Also recorded” adds a separate entry of the source.

Legend:
[1] = system: AB5711; experiment: Effect of VK28 on the activity of antibiotics (OD600); type: cell-based, A. baumannii; settings: 50 μM VK28; 30 antibiotics
Method: In some aspects of the present invention, one or more iron chelators (for example Compound 4, VK28, or its analogs or derivatives, or Apo6619) may be used in a composition or method for treating a bacterial infection with one or more antibiotics. […] Methods and compositions comprising one or more iron chelators with one or more of each of the foregoing antibiotics are hereby disclosed.
In this example, culture of AB5711 was grown overnight in LB media at 37° C. and diluted 1:100 into Media A. Cells were allowed to grow for 4 hours at 37 in 96-well plates and were then treated with antibiotics with or without 50 μM VK28. Cells were then allowed to shake for an additional 20 hours, and OD600 measurements were taken.

[2] = system: A. baumannii; experiment: Growth (OD600) with VK28 added at different times post-inoculation; type: cell-based; settings: 200 μM VK28 added at 0, 4, 8, 12, 16, 20 hr post-inoculation; low-iron M9
Method: A. baumannii was grown in low-iron M9 media and challenged with 200 μM VK28 at 0 hr (▪), 4 hr (▴), 8 hr (▪), 12 hr (▪), 16 hr (•), and 20 hr (▪) post-inoculation. Growth was estimated by absorbance at 600 nm every 4 hr for 24 hr.

[3] = system: Bioluminescent AB0057; experiment: Bioluminescent AB0057 challenged with iron chelators; type: cell-based, Acinetobacter baumannii; settings: 100 μm; 4 hours; low iron media
Description: This example studies bioluminescent A. baumannii challenged with iron chelators. AB0057 is a strain of Acinetobacter baumannii available from Robert Bonomo, Case Western Reserve University, Cleveland, Ohio.
As a precursor to conducting this in vitro assay, AB0057 was transformed with a bioluminescent plasmid. The p16Slux plasmid is illustrated in FIG. 38, and further details regarding its development and use are set forth in Christian U. Riedel et al., “Construction of p16Slux, a Novel Vector for Improved Bioluminescent Labeling of Gram-Negative Bacteria,” Appl. Environ. Microbiol. 2007 November; 73(21): 7092-7095.
Bioluminescent AB0057 were grown overnight in LB media and sub-cultured into low iron media in a 96-well plate containing varying concentrations of iron chelators for 4 hours. Bacterial growth was measured by bioluminescence (relative light units). The iron chelators VK28 and DFO were tested along with chelators DIP, ETTA, and EDTA as controls. The chelators were tested a concentrations of 0 μM, […], 3.13 μM, 6.25 μM, 12.5 μM, 25 μM, 50 μM, and 100 μM.

[4] = rat; systemically/intravenously; cited from earlier work
[5] = Maximum systemic dose without adverse side-effects, extrapolated; settings: human; systemic delivery; based on mouse and rat results
Method: The iron chelator is employed in an amount effective for the treatment and/or prevention of bacterial infection. The effective dosage seen in vitro is up to 2 mM based on molarity or up to 1 mg/mL. 2 mM or 1 mg/mL is an extremely high dosage for translating into in vivo. Previous experiments by Varinel Inc. have shown toxicity with VK28 at 30 mg/kg in a mouse or 70 mg/kg in a rat when delivered systemically/intravenously. […] Higher doses are suitable for topical administration. The iron chelator can present in an amount that is up to about 10% by weight, alternatively up to about 20% by weight of the topical composition. In some embodiments, the topical composition can comprise about 0.1% to about 20% of at least one iron chelator, alternatively about 1% to about 20%, alternatively about 5% to about 20%, alternatively about 5% to about 10%, and include, but are not limited to, for example, about 1%, about 2%, about 3%, about 4%, about 5%, about 6%, about 7%, about 8%, about 9%, about 10%, about 12%, about 15%, about 20%, and includes percentages and ranges there between and in increments of about 0.1%, about 0.25%, about 0.5%, about 1% and the like. Determination of an effective amount of VK28, or derivative thereof, to employ is well within the skill of one having ordinary skill in the art having knowledge of the teachings set forth herein.

[6] = system: E. coli O157:H7; experiment: Time-kill assay, Apo6619 with Rifampin; type: cell-based; settings: 1.5×MIC Apo6619 in combination with 0.75×MIC Rifampin; 0, 5 and 24 hours
Method: Reductions in colony forming units (CFU)/mL were determined over time (time-kill assay) after exposure to VK28 and deferiprone (DFP), the two iron chelators that performed best in MIC assays when compared to controls. To better represent the iron content found in the human body, MIC and time-kill assays were also determined in minimal media and tissue culture media. Time-Kill assays were performed as previously described in G. P. Neupane et al., “In vitro time-kill activities of ciprofloxacin alone and in combination with the iron chelator deferasirox against Vibrio vulnificus,” European Journal of Clinical Microbiology and Infectious Diseases, 407-410 (2010); and R. L. White, et al., “Comparison of Three Different In Vitro Methods of Detecting synergy: Time-Kill, Checkerboard, and E test,” Journal of Antimicrobial Agents and Chemotherapy, 1914-1918 (1996). Initial inocula, for example 1×10^6 CFU/mL or 1×10^7 CFU/mL were challenged with iron chelator with and/or without an antibiotic. […] Time-kill results were analyzed by determining the change in log 10 numbers of CFU/ml at 0, 6, and 24 h, compared to counts at 0 h. […]
In this example, time-kill assays were performed as described in Example 9 using Apo6619 as the iron chelator in combination with Rifampin against E. coli O157:H7. […] Time-kill results were analyzed by determining the change in log 10 numbers of CFU/mL at 0, 5 and 24 hours.

[7] = system: AB5075, a stain of A. baumannii (Ab); experiment: Development of rifampin resistance over 7 days (OD600); type: cell-based; settings: ApoL1 in combination with rifampin; 7 days
Method: Development of antibiotic-resistant strains is an ongoing problem in the treatment of bacterial infections. In some embodiments, the present technology provides methods and compositions for reducing, inhibiting or preventing formation of antibiotic-resistant bacterial strains. In some embodiments, the iron chelator of the present technology is administered to a patient as a prophylactic before antibiotic treatment or during antibiotic treatment. In some embodiments, the iron chelator is added concurrently with an antibiotic.
Cultures of AB5075, a stain of A. baumannii (Ab), was cultured in the presence of Rifampin alone, the iron chelator ApoL1 alone or Rifampin combination with ApoL1 for 7 days.

## OCCN1CCN(Cc2ccc(O)c3ncccc23)CC1 [VK28, 5-(4-(2-hydroxyethyl)piperazin-1-ylmethyl)-8-hydroxyquinoline]
[1]
  inhibition of the activity of antibiotics by VK28: only inhibited the activity of one antibiotic, namely thiamphenicol; also recorded: not shown to inhibit the activity of the antibiotics with the exception of Thiaphenicol
[2]
  continued multiplication of bacteria (OD600): effective to halt the continued multiplication of bacteria
[3]
  Bioluminescence (relative light units): especially surprisingly lower
[4]
  dose showing toxicity: 70 mg/kg
[5]
  maximum dose without adverse side-effects: approximately 60 mg/kg

## CNC(=O)c1c(O)c(=O)cc(C)n1C1CC1 [Apo6619, 1-cyclopropyl-3-hydroxy-6-methyl-4-oxo-1,4-dihydro-pyridine-2-carboxylic acid methylamide]
[6]
  time kill curves: combinational effect

## Cc1c(O)c(=O)ccn1C [ApoL1, 3-hydroxy-1,2-dimethyl-4(1H)-pyridone]
[7]
  growth of rifampin-resistant strains: inhibits growth of an antibiotic resistant Ab strain over 7 days; also recorded: inhibition of rifampin-resistant strains of Ab over the 7 days
